# According to patent US5462848A, “Color photographic materials including magenta coupler, inhibitor-releasing coupler and carbonamide compound, and methods” (Eastman Kodak Company, priority 1993, dated 1995):
# Experiment: Potentiometric titration of dispersion pKa of couplers as aqueous dispersions
# Type: physicochemical
# Details: 0.50M potassium counter ion
# Excerpt: Preferred two-equivalent magenta dye-forming couplers for the practice of this invention include those that have pKa values of less than 10.0 when dispersed together with a coupler solvent. Potentiometric titrations were used to measure pKa values for some of the preferred couplers of the invention as aqueous dispersions. In these two-phase mixtures, the term pKa denotes the aqueous buffer pH at which half of the coupler in the oil phase is ionized or ion paired. Table I lists dispersion pKa values measured with 0.50M potassium counter ion.
# [1] = coupler solvent C5, coupler:solvent 1:1, aqueous dispersion
# [2] = coupler solvent S1, coupler:solvent 1:1, aqueous dispersion
# [3] = coupler solvent S2, coupler:solvent 1:2, aqueous dispersion
pKa (0.5M K+) [1],pKa (0.5M K+) [2],pKa (0.5M K+) [3],"pKa (0.5M K+) (coupler solvent C1, coupler:solvent 1:2, aqueous dispersion)",SMILES
8.0,7.6,,,CCCCCCCCCCCCNS(=O)(=O)c1ccc(NC2=NN(c3c(Cl)cc(Cl)cc3Cl)C(=O)C2Sc2ccccc2NC(=O)C(CC)Oc2ccc(C(C)(C)CC)cc2C(C)(C)CC)c(Cl)c1 (stereo not drawn) [M4]
,,8.4,8.9,CCCCCCCCCCCCCCCCCCNS(=O)(=O)c1ccc(Cl)c(NC2=NN(c3c(Cl)cc(Cl)cc3Cl)C(=O)C2Sc2cc(C(C)C)ccc2C(C)C)c1 (stereo not drawn) [M20]
,,7.9,,CCCCCCCCCCCCNS(=O)(=O)c1ccc(NC2=NN(c3c(Cl)cc(Cl)cc3Cl)C(=O)C2Sc2ccccc2NC(=O)CCCCCCCCCCC)c(Cl)c1 (stereo not drawn) [M8]

# Second part, the molecule before the results:
SMILES,pKa (0.5M K+) [1],pKa (0.5M K+) [2],pKa (0.5M K+) [3],"pKa (0.5M K+) (coupler solvent C1, coupler:solvent 1:2, aqueous dispersion)"
CCCCCCCCCCCCCCCC(=O)Nc1ccc(Cl)c(NC2=NN(c3c(Cl)c(Cl)c(Cl)c(Cl)c3Cl)C(=O)C2Sc2ccccc2NC(=O)OCc2ccccc2)c1 (stereo not drawn) [M7],,,7.5,
CCCCCCCCCCCCCC(=O)Nc1ccc(Cl)c(NC2=NN(c3c(Cl)cc(Cl)cc3Cl)C(=O)C2Sc2ccccc2NC(=O)C(CC)Oc2ccc(C(C)(C)CC)cc2C(C)(C)CC)c1 (stereo not drawn) [M3],8.2,7.9,,
CCCCCCCCCCCCNS(=O)(=O)c1ccc(NC2=NN(c3c(Cl)cc(Cl)cc3Cl)C(=O)C2Sc2cc(C(C)(C)CC(C)(C)C)ccc2OCCCC)c(Cl)c1 (stereo not drawn) [M1],,,8.5,
